These results are taken from ChEMBL document CHEMBL5576069, “Novel 4-[4-(4-methylpiperazin-1-yl)phenyl]-6-arylpyrimidine derivatives and their antitrypanosomal activities against T.brucei” (Bioorg Med Chem Lett, 2024).

For orientation: EC50 means the concentration giving half of the maximal effect. A high value points to lower potency in that assay. As usually defined, the EC90 is the concentration at which the effect reaches the 90% level.

Data set [1] relates to Trypanosoma brucei rhodesiense. Put plainly: Antitrypanosomal activity against Trypanosoma brucei rhodesiense STIB900 trypomastigotes incubated for 70 hrs by resazurin dye based microplate fluorometer. To be noted: STIB900, 70 h. Type of data set: functional, organism-based. In general terms: Alamar Blue is a resazurin reagent that responds to reducing activity.
Data set [2] in a line: Cytotoxicity against rat L6 cells. Type of data set: toxicity, cell-based.
For a further data set, the system named is Trypanosoma cruzi. Put plainly: Antitrypanosomal activity against Trypanosoma cruzi Tulahuen C4. The format is functional, organism-based.
In another data set the test system is Leishmania donovani. Kind of data set: Antitrypanosomal activity against Leishmania donovani amastigotes MHOM-ET-67/L8. Type of data set: functional, organism-based.
The subject of data set [3] is Trypanosoma brucei rhodesiense. Put plainly: Antitrypanosomal activity against Trypanosoma brucei rhodesiense. The format is functional, organism-based.

Structures are written as SMILES. Activity calls are given as the source filed them. The calls are words filed in the database; no cut-off is given here.

As for `CN1CCN(c2ccc(-c3cc(-c4ccccc4Br)nc(N)n3)cc2)CC1`, the EC50 in data set [1] amounted to 10300 nM; in data set [2], 11.6 µM. Moreover, the outcome in the data set with Trypanosoma cruzi and in the data set on Leishmania donovani was inactive.
In the case of `CN1CCN(c2ccc(-c3cc(-c4ccc(Br)cc4)ncn3)cc2)CC1`, the EC50 in data set [1] was 600 nM; in data set [2], 14.4 µM. The outcome in the data set on Trypanosoma cruzi and in the data set on Leishmania donovani was inactive.
In data set [3], `CSc1ccc(OCc2ncc([N+](=O)[O-])n2C)cc1` [FEXINIDAZOLE] showed an EC50 of 760 nM and an EC90 of 760 nM.
For `CN1CCN(c2ccc(-c3cc(-c4ccccc4[N+](=O)[O-])nc(N)n3)cc2)CC1`, the half-maximal effective concentration (EC50) was 14000 nM in data set [1] and 7.1 µM in data set [2]. Besides, the outcome in the data set with Trypanosoma cruzi and in the data set with Leishmania donovani was inactive.
As for `Cc1nc(-c2ccccc2)cc(-c2ccc(N3CCN(C)CC3)cc2)n1`, the EC50 in data set [1] is 2800 nM; in data set [2], 79.7 µM. The result with Trypanosoma cruzi and with Leishmania donovani was inactive.
For the compound `CN1CCN(c2ccc(-c3cc(-c4ccc(Cl)cc4)ncn3)cc2)CC1`, the values for the EC50 in data set [1] and in data set [2] were 500 nM and 16.4 µM, respectively. In addition, the outcome in the data set on Trypanosoma cruzi and with Leishmania donovani was inactive.
`CN1CCN(c2ccc(-c3cc(-c4ccc(Br)cc4)nc(N)n3)cc2)CC1`: the EC50 in data set [1] worked out at 1600 nM; in data set [2] it was 5.1 µM. Also, the result in the data set with Trypanosoma cruzi and in the data set with Leishmania donovani was inactive.
Consider `CN1CCN(c2ccc(-c3cc(-c4cccc(Cl)c4)nc(N)n3)cc2)CC1`, for which the EC50 was 1700 nM in data set [1] and 79.7 µM in data set [2]. In addition, the result in the data set with Trypanosoma cruzi and in the data set with Leishmania donovani was inactive.
As for `Cc1nc(-c2ccc(N3CCN(C)CC3)cc2)cc(-c2cccc(Cl)c2Cl)n1`, the EC50 was determined as 3600 nM in data set [1] and 37.3 µM in data set [2]. Moreover, the outcome with Trypanosoma cruzi and with Leishmania donovani was inactive.
`CN1CCN(c2ccc(-c3cc(-c4ccccc4[N+](=O)[O-])ncn3)cc2)CC1`: the EC50 is 15200 nM in data set [1] and 46.9 µM in data set [2]. The outcome with Trypanosoma cruzi and with Leishmania donovani was inactive.
As for `CN1CCN(c2ccc(-c3cc(-c4ccccc4)nc(N)n3)cc2)CC1`, the EC50 in data set [1] is 3600 nM; in data set [2], 30 µM. For the same compound, the result in the data set with Trypanosoma cruzi and in the data set on Leishmania donovani was inactive.
In the case of `Cc1nc(-c2ccc(N3CCN(C)CC3)cc2)cc(-c2cccc(Br)c2)n1`, the results for the EC50 in data set [1] and in data set [2] were 1600 nM and 21.1 µM, respectively. Moreover, the result with Trypanosoma cruzi and with Leishmania donovani was inactive.
`CN1CCN(c2ccc(-c3cc(-c4cccc(Cl)c4)ncn3)cc2)CC1`: the EC50 in data set [1] is 1700 nM; in data set [2], 36.3 µM. For the same compound, the outcome in the data set with Trypanosoma cruzi and with Leishmania donovani was inactive.
On to `CN1CCN(c2ccc(-c3cc(-c4cccc(Br)c4)ncn3)cc2)CC1`, for which the results for the EC50 in data set [1] and in data set [2] were 1600 nM and 64.5 µM, respectively. The outcome in the data set on Trypanosoma cruzi and with Leishmania donovani was inactive.
For the compound `CN1CCN(c2ccc(-c3cc(-c4cccc(Cl)c4Cl)ncn3)cc2)CC1`, the EC50 in data set [1] stood at 1800 nM; in data set [2], 18.1 µM. In addition, the result with Trypanosoma cruzi and in the data set with Leishmania donovani was inactive.
`CN1CCN(c2ccc(-c3cc(-c4ccccc4Cl)ncn3)cc2)CC1`: the EC50 is 5800 nM in data set [1] and 42.6 µM in data set [2]. For the same compound, the result in the data set with Trypanosoma cruzi and in the data set on Leishmania donovani was inactive.
`CN1CCN(c2ccc(-c3cc(-c4ccc(Cl)cc4Cl)ncn3)cc2)CC1`: the EC50 is 2400 nM in data set [1] and over 100 µM in data set [2]. Also, the outcome in the data set with Trypanosoma cruzi and in the data set on Leishmania donovani was inactive.
For `Cc1nc(-c2ccc(Cl)cc2)cc(-c2ccc(N3CCN(C)CC3)cc2)n1`, the EC50 in data set [1] came to 600 nM; in data set [2], 5.3 µM. Besides, the result with Trypanosoma cruzi and in the data set on Leishmania donovani was inactive.
For `CN1CCN(c2ccc(-c3cc(-c4ccccc4Br)ncn3)cc2)CC1`, the EC50 worked out at 9700 nM in data set [1] and 39.6 µM in data set [2]. For the same compound, the outcome with Trypanosoma cruzi and in the data set with Leishmania donovani was inactive.
As to `Cc1nc(-c2ccc(N3CCN(C)CC3)cc2)cc(-c2cccc(Cl)c2)n1`, the EC50 was 1700 nM in data set [1] and 20.8 µM in data set [2]. The outcome with Trypanosoma cruzi and in the data set on Leishmania donovani was inactive.
With `CN1CCN(c2ccc(-c3cc(-c4ccc(Cl)cc4Cl)nc(N)n3)cc2)CC1`, the values for the EC50 in data set [1] and in data set [2] were 500 nM and 7.4 µM, respectively. Further, the result in the data set on Trypanosoma cruzi and with Leishmania donovani was inactive.
Take `Cc1nc(-c2ccc(N3CCN(C)CC3)cc2)cc(-c2ccccc2Br)n1`: the concentration for a half-maximal effect (EC50) in data set [1] is 4300 nM; in data set [2] it was 35.2 µM. Further, the result in the data set on Trypanosoma cruzi and in the data set on Leishmania donovani was inactive.
`COc1cc([C@@H]2c3cc4c(cc3[C@H](O)[C@H]3COC(=O)[C@H]23)OCO4)cc(OC)c1OC` [PODOFILOX]: it took 0.02 µM to reach a half-maximal effect in data set [2] (EC50).
On to `Cc1nc(-c2ccc(N3CCN(C)CC3)cc2)cc(-c2ccccc2[N+](=O)[O-])n1`, for which the EC50 in data set [1] was determined as 13500 nM; in data set [2] it was 40.2 µM. In addition, the outcome in the data set with Trypanosoma cruzi and in the data set with Leishmania donovani was inactive.
As to `Cc1nc(-c2ccc(Br)cc2)cc(-c2ccc(N3CCN(C)CC3)cc2)n1`, the EC50 in data set [1] turned out to be 900 nM; in data set [2] it was 11.2 µM. For the same compound, the result in the data set on Trypanosoma cruzi and in the data set on Leishmania donovani was inactive.
For `CN1CCN(c2ccc(-c3cc(-c4cccc(Br)c4)nc(N)n3)cc2)CC1`, the EC50 amounted to 1100 nM in data set [1] and 33.6 µM in data set [2]. The outcome in the data set with Trypanosoma cruzi and in the data set with Leishmania donovani was inactive.
On to `CN1CCN(c2ccc(-c3cc(-c4ccccc4Cl)nc(N)n3)cc2)CC1`, for which the EC50 in data set [1] is 20200 nM; in data set [2] it was 40 µM. Besides, the outcome with Trypanosoma cruzi and in the data set with Leishmania donovani was inactive.
For the compound `Cc1nc(-c2ccc(N3CCN(C)CC3)cc2)cc(-c2ccc(Cl)cc2Cl)n1`, the EC50 in data set [1] is 10100 nM; in data set [2], over 100 µM. Moreover, the outcome in the data set on Trypanosoma cruzi and with Leishmania donovani was inactive.
For the compound `CN1CCN(c2ccc(-c3cc(-c4ccc(Cl)cc4)nc(N)n3)cc2)CC1`, the EC50 in data set [1] was determined as 1800 nM; in data set [2], 13 µM. For the same compound, the result in the data set on Trypanosoma cruzi and in the data set with Leishmania donovani was inactive.
As to `CN1CCN(c2ccc(-c3cc(-c4ccccc4)ncn3)cc2)CC1`, the EC50 worked out at 3800 nM in data set [1] and 42.7 µM in data set [2]. Moreover, the outcome in the data set on Trypanosoma cruzi and with Leishmania donovani was inactive.
